Assay results as given in PubChem BioAssay AID2060507 (Molecular Pharmacology Branch, DTP, NCI, 2025).

Test system: 519858-162-T-J1-PDC complex spheroid viability
Experiment: Anticancer human tumor 519858-162-T-J1-PDC patient-derived colon adenocarcinoma cell line growth inhibition [GQUAD]
Settings: for IC50: curve of first compound; for viability, T/C: stronger effect = lower value
Method in brief: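 Multi-cell-type spheroids of tumor cells with HUVEC and mesenchymal stem cells, treated with drug combinations. Concentrations descend in half-log steps from near clinical Cmax, or from 10 microM where Cmax is unknown; viability read-out.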

[1] = second compound 0.0316 µM, first compound 0.0316 µM
[2] = second compound 0.0316 µM, first compound 0.1 µM
[3] = second compound 0.0316 µM, first compound 0.316 µM
[4] = second compound 0.0316 µM, first compound 1 µM
[5] = second compound 0.0316 µM, first compound 3.16 µM
[6] = second compound 0.0316 µM, first compound 10 µM
[7] = second compound 0.1 µM, first compound 0.0316 µM
[8] = second compound 0.1 µM, first compound 0.1 µM
[9] = second compound 0.1 µM, first compound 0.316 µM
[10] = second compound 0.1 µM, first compound 1 µM
[11] = second compound 0.1 µM, first compound 3.16 µM
[12] = second compound 0.1 µM, first compound 10 µM
[13] = second compound 0.316 µM, first compound 0.0316 µM
[14] = second compound 0.316 µM, first compound 0.1 µM
[15] = second compound 0.316 µM, first compound 0.316 µM
[16] = second compound 0.316 µM, first compound 1 µM
[17] = second compound 0.316 µM, first compound 3.16 µM
[18] = second compound 0.316 µM, first compound 10 µM
[19] = second compound 1 µM, first compound 0.0316 µM
[20] = second compound 1 µM, first compound 0.1 µM
[21] = second compound 1 µM, first compound 0.316 µM
[22] = second compound 1 µM, first compound 1 µM
[23] = second compound 1 µM, first compound 3.16 µM
[24] = second compound 1 µM, first compound 10 µM
[25] = second compound 3.16 µM, first compound 0.0316 µM
[26] = second compound 3.16 µM, first compound 0.1 µM
[27] = second compound 3.16 µM, first compound 0.316 µM
[28] = second compound 3.16 µM, first compound 1 µM
[29] = second compound 3.16 µM, first compound 3.16 µM
[30] = second compound 3.16 µM, first compound 10 µM
[31] = second compound 10 µM, first compound 0.0316 µM
[32] = second compound 10 µM, first compound 0.1 µM
[33] = second compound 10 µM, first compound 0.316 µM
[34] = second compound 10 µM, first compound 1 µM
[35] = second compound 10 µM, first compound 3.16 µM
[36] = second compound 10 µM, first compound 10 µM
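Note: spheroids exposed to compounds for 7 days.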
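Throughout, for viability, T/C: 100% = DMSO vehicle control viability.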

Compound: C=CCn1c(=O)c2cnc(Nc3ccc(N4CCN(C)CC4)cc3)nc2n1-c1cccc(C(C)(C)O)n1 + CN(C)c1ccc(Nc2c3ccc(NC(=O)CCN4CCCC4)cc3nc3cc(NC(=O)CCN4CCCC4)ccc23)cc1
- IC50 (second compound 0.0316 µM): > 10 µM
- IC50 (second compound 0.1 µM): > 10 µM
- IC50 (second compound 0.316 µM): > 10 µM
- IC50 (second compound 1 µM): > 10 µM
- IC50 (second compound 3.16 µM): > 10 µM
- IC50 (second compound 10 µM): > 10 µM
- viability, T/C [1]: 95.3%
- viability, T/C [2]: 120%
- viability, T/C [3]: 117%
- viability, T/C [4]: 83.3%
- viability, T/C [5]: 75.2%
- viability, T/C [6]: 120%
- viability, T/C [7]: 150%
- viability, T/C [8]: 86.8%
- viability, T/C [9]: 92.5%
- viability, T/C [10]: 64.6%
- viability, T/C [11]: 88.4%
- viability, T/C [12]: 67.6%
- viability, T/C [13]: 112%
- viability, T/C [14]: 89.7%
- viability, T/C [15]: 88.9%
- viability, T/C [16]: 63.8%
- viability, T/C [17]: 85.1%
- viability, T/C [18]: 104%
- viability, T/C [19]: 72.3%
- viability, T/C [20]: 74.7%
- viability, T/C [21]: 61.4%
- viability, T/C [22]: 65%
- viability, T/C [23]: 80.4%
- viability, T/C [24]: 80.2%
- viability, T/C [25]: 77.7%
- viability, T/C [26]: 62%
- viability, T/C [27]: 66.7%
- viability, T/C [28]: 67.6%
- viability, T/C [29]: 62.1%
- viability, T/C [30]: 91.1%
- viability, T/C [31]: 78%
- viability, T/C [32]: 63.8%
- viability, T/C [33]: 57.7%
- viability, T/C [34]: 62%
- viability, T/C [35]: 89.3%
- viability, T/C [36]: 137%

Compound: COc1ncnc(C2CC2)c1-c1ncc2cnn(Cc3ccc(-c4nc(C(F)(F)F)cn4C(C)C)cc3)c2n1 + CN(C)c1ccc(Nc2c3ccc(NC(=O)CCN4CCCC4)cc3nc3cc(NC(=O)CCN4CCCC4)ccc23)cc1
- IC50 (second compound 0.0316 µM): > 10 µM
- IC50 (second compound 0.1 µM): > 10 µM
- IC50 (second compound 0.316 µM): > 10 µM
- IC50 (second compound 1 µM): > 10 µM
- IC50 (second compound 3.16 µM): > 10 µM
- IC50 (second compound 10 µM): > 10 µM
- viability, T/C [1]: 120%
- viability, T/C [2]: 83%
- viability, T/C [3]: 103%
- viability, T/C [4]: 89.3%
- viability, T/C [5]: 99.6%
- viability, T/C [6]: 115%
- viability, T/C [7]: 93.4%
- viability, T/C [8]: 97.8%
- viability, T/C [9]: 102%
- viability, T/C [10]: 75.6%
- viability, T/C [11]: 91.4%
- viability, T/C [12]: 103%
- viability, T/C [13]: 86%
- viability, T/C [14]: 117%
- viability, T/C [15]: 116%
- viability, T/C [16]: 76%
- viability, T/C [17]: 66.5%
- viability, T/C [18]: 84.9%
- viability, T/C [19]: 85.1%
- viability, T/C [20]: 80.7%
- viability, T/C [21]: 67.5%
- viability, T/C [22]: 68%
- viability, T/C [23]: 73%
- viability, T/C [24]: 72.4%
- viability, T/C [25]: 114%
- viability, T/C [26]: 79.7%
- viability, T/C [27]: 52.2%
- viability, T/C [28]: 56.6%
- viability, T/C [29]: 54%
- viability, T/C [30]: 69.8%
- viability, T/C [31]: 58.7%
- viability, T/C [32]: 53.3%
- viability, T/C [33]: 99.4%
- viability, T/C [34]: 61.9%
- viability, T/C [35]: 51.7%
- viability, T/C [36]: 104%
